Source: patent publication US20200338082A1, “FORMULATIONS, SYSTEMS, AND METHODS FOR THERAPEUTIC TREATMENT” (priority 2017, published 2020)
Structures can show the parent of a compound that is named as a salt.

Assay: Solubility of chemotherapeutic agents in solubilizing excipients and excipient blends
Assay type: physicochemical
Conditions: all organic blends: PEG400/Tween; Cremophor or Solutol/PEG400; Cremophor or Solutol/DMA or ethanol/PEG400
Protocol: Eleven compounds and seven solubilizing excipients were obtained from commercial sources (see Table 1). […] The excipients listed comprise all of the organic solubilizers currently approved by the FDA for intravenous use in human patients.
Concentration targets were calculated based on providing the same amount of drug used clinically over the time period typically allotted for each compound (see Table 2 for target concentrations). Each solubilizing mixture was started at the target concentration, and if ineffective, diluted 2-fold successively until solubilization was achieved (sometimes with the help of gentle heating, mixing, or sonication), or until the solution was tested at 1:16 the target concentration, in which case further testing was halted (this concentration is approximately what would be required to hit a target dose with a daily cartridge exchange in a delivery device).
Three primary formulation combinations were tested in this example: • Solvent and co-solvent systems (PEG400 and Tween® 20 or Tween® 80) • Surfactant and co-solvent systems (Cremophor® or Solutol® and PEG400) • Surfactant and solvent/co-solvent systems (Cremophor® or Solutol® and DMA or ethanol and PEG400) For the first two combinations, mixtures were made upfront and solubility of each compound tested within. For the third, the compound was pre-dissolved in either DMA or ethanol and the remaining components then added as a mixture.

SMILES	solubility in organic blends tested
Nc1ccn([C@@H]2O[C@H](CO)[C@@H](O)C2(F)F)c(=O)n1 [gemcitabine hydrochloride]	insoluble in all of the organic blends tested
N.N.O=C([O-])C1(C(=O)[O-])CCC1.[Pt+2] [carboplatin]	insoluble in all of the organic blends tested
CCc1c2c(nc3ccc(OC(=O)N4CCC(N5CCCCC5)CC4)cc13)-c1cc3c(c(=O)n1C2)COC(=O)[C@]3(O)CC [irinotecan]	insoluble in all of the organic blends tested
O=c1[nH]cc(F)c(=O)[nH]1 [5-FU, fluorouracil]	insoluble in all of the organic blends tested

Same assay, conditions: compound pre-dissolved in dimethylacetamide (DMA)

SMILES	solubility in DMA
CC(=O)O[C@H]1C(=O)[C@@]2(C)[C@H]([C@H](OC(=O)c3ccccc3)[C@]3(O)C[C@H](OC(=O)[C@H](O)[C@@H](NC(=O)c4ccccc4)c4ccccc4)C(C)=C1C3(C)C)[C@]1(OC(C)=O)CO[C@@H]1C[C@@H]2O [paclitaxel]	sufficient to solubilize
CC[C@]1(O)C[C@@H]2CN(CCc3c([nH]c4ccccc34)[C@@](C(=O)OC)(c3cc4c(cc3OC)N(C)[C@H]3[C@@](O)(C(=O)OC)[C@H](OC(C)=O)[C@]5(CC)C=CCN6CC[C@]43[C@@H]65)C2)C1 [vinblastine]	sufficient to solubilize
COc1cc([C@@H]2c3cc4c(cc3[C@@H](O[C@@H]3O[C@@H]5CO[C@@H](C)O[C@H]5[C@H](O)[C@H]3O)[C@H]3COC(=O)[C@H]23)OCO4)cc(OC)c1O [etoposide]	sufficient to solubilize
CN(Cc1cnc2nc(N)nc(N)c2n1)c1ccc(C(=O)N[C@@H](CCC(=O)O)C(=O)O)cc1 [methotrexate]	sufficient to solubilize
CC(=O)O[C@@]12CO[C@@H]1C[C@H](O)[C@@]1(C)C(=O)[C@H](O)C3=C(C)[C@@H](OC(=O)[C@H](O)[C@@H](NC(=O)OC(C)(C)C)c4ccccc4)C[C@@](O)([C@@H](OC(=O)c4ccccc4)[C@H]21)C3(C)C [docetaxel]	sufficient to solubilize

Same assay, conditions: free base versus hydrochloride salt

SMILES	solubility of free base instead of the salt
Nc1ccn([C@@H]2O[C@H](CO)[C@@H](O)C2(F)F)c(=O)n1 [gemcitabine]	increased solubility
